Reference: US12590062B2, “PD-1/PD-L1 inhibitors” (Gilead Sciences, Inc., priority 2017, dated 2026)

What was measured:
PD-1/PD-L1 interaction = biological target: T1, PD-1/PD-L1 interaction (Homo sapiens, UniProt Q9NZQ7); assay: PD-1/PD-L1 NFAT reporter co-culture assay; type: cell-based; conditions: Jurkat PD-1 NFAT-luciferase cells co-cultured with aAPC-PD-L1 CHO cells, 6 hrs at 37° C.; read-out: EC50 NFAT Luciferase
T1 construct: expressed in transfected cells; host or cells: CHO cells (aAPC-PD-L1) co-cultured with Jurkat cells overexpressing PD-1 and an NFAT-luciferase reporter
T1 sequence (Q9NZQ7 19-290): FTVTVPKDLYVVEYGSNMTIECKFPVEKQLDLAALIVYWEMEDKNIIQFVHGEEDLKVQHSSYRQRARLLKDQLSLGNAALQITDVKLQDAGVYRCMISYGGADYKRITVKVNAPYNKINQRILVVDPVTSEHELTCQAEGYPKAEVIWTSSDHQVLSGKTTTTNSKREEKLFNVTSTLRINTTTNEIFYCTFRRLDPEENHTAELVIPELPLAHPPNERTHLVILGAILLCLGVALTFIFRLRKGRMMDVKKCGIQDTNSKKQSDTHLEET
In short: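 Restoration of TCR-driven NFAT luciferase signal: 6 h, 37 °C co-culture of PD-1 Jurkat reporter cells (pre-mixed with compound) on overnight-seeded PD-L1/anti-CD3 CHO monolayer. ONE-Glo luminescence; dose-response fitted to four-parameter equation for EC50.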

PD-1/PD-L1 = PD-1/PD-L1 (Homo sapiens, UniProt Q9NZQ7); assay: PD-1/PD-L1 biochemical protein-protein interaction assay (ALPHA); type: binding; conditions: 0.3 nM His tagged PD-L1, 2.5 nM biotinylated Fc-PD-1, 60 minutes at 25° C., read-out: IC50 PD-L1-PD-1 Alpha IC50-mono PD-L1-fcP-D1
Sequence of PD-1/PD-L1 (Q9NZQ7 19-238 limits assumed): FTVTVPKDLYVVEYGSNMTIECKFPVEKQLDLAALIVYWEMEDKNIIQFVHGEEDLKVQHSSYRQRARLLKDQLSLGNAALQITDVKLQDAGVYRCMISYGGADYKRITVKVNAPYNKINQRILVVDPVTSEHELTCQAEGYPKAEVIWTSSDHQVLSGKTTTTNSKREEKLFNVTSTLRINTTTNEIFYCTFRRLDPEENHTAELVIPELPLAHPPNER
In short: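 Compound blockade of the PD-1/PD-L1 extracellular-domain interaction measured as reduced ALPHA signal after 60 min at 25 °C, pH 7.4 Hepes buffer with EDTA, Tween 20 and BSA. Final proteins: His-tagged PD-L1 0.3 nM, biotinylated Fc-PD-1 2.5 nM; four-parameter curve fit gives IC50.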

PD-L1 = biological target: T2, PD-L1 (Homo sapiens, UniProt Q9NZQ7); assay: PD-L1/PD-L1 dimerization biochemical protein-protein interaction assay (ALPHA); type: binding; conditions: compound-induced PD-L1 dimerization, head prints '1 nM' (0.5 nM His-tagged PD-L1 and 0.5 nM FLAG-tagged PD-L1), read-out: AC50 PDL1 Dimer Alpha 1 nM
T2 construct: determine if they can specifically dimerize the extracellular domains of PD-L1
T2 sequence (Q9NZQ7 19-238 limits assumed): as above
T2 sequence (Q9NZQ7 19-238 limits assumed): as above
In short: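 After 2 h at 25 °C with compound, His- and FLAG-tagged PD-L1 ECDs (each 0.5 nM final; 25 mM Hepes pH 7.4, 150 mM NaCl) were detected by sequential anti-His acceptor and anti-FLAG donor bead incubations. Dose-response curves fitted to four-parameter equation for AC50.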

SMILES | EC50 (PD-1/PD-L1 interaction) | IC50 (PD-1/PD-L1) | AC50 (PD-L1)
Cc1c(COc2cc(OCc3cncc(C#N)c3)c(CNC[C@@H](O)CC(=O)O)cc2Cl)cccc1-c1cccc(-c2ccc(C3=NCCN3)c(OC(F)F)c2)c1C [Example 464] | 152 nM | 0.099 nM | 87.6 nM
Cc1c(COc2cc(OCc3cncc(C#N)c3)c(CN[C@@](C)(CO)C(=O)O)cc2Cl)cccc1-c1cccc(COc2cc(OCc3cncc(C#N)c3)c(CN[C@@](C)(CO)C(=O)O)cc2Cl)c1Br [Example 481] | 155 nM | 0.064 nM | 92.9 nM
COc1nc(O[C@H]2CCc3c(-c4cccc(-c5cc(C)c(CNC[C@@H]6CCC(=O)N6)c(OC)n5)c4Cl)cccc32)c(Cl)cc1CN1CC[C@](C)(C(=O)O)C1 [Example 489] | 18 nM | 0.064 nM | 18.3 nM
Cc1c(COc2cc(OCc3cncc(C#N)c3)c(CNC[C@@H](O)CC(=O)O)cc2Cl)cccc1-c1cccc(-c2ccc(C3=NCCN3)c(OCCCC#N)n2)c1C [Example 466] | 93 nM | 0.064 nM | 44.1 nM
Cc1c(COc2cc(OCc3cncc(C#N)c3)c(CN[C@@](C)(CO)C(=O)O)cc2Cl)cccc1-c1cccc(-c2ccc(OCCNCCO)c(C(=O)NC3CC3)c2)c1C [Example 459] | 1200 nM | 0.064 nM | 89.9 nM
Cc1c(COc2cc(OCc3cncc(C#N)c3)c(CNC[C@@H](O)CC(=O)O)cc2Cl)cccc1-c1cccc(-c2ccc3c(c2)CC(NCC2CCC(=O)N2)C3)c1C (stereo partly drawn) [Example 439] | 270 nM | 0.376 nM | 154 nM
Cc1c(COc2cc(OCc3cncc(C#N)c3)c(CN[C@@](C)(CO)C(=O)O)cc2Cl)cccc1-c1cccc(-c2ccc3c(c2)CC(N)C3)c1C (stereo partly drawn) [Example 343, (S)-2-((4-((3′-((R)-2-amino-2,3-dihydro-1H-inden-5-yl)-2,2′-dimethyl-[1,1′-biphenyl]-3-yl)methoxy)-5-chloro-2-((5-cyanopyridin-3-yl)methoxy)benzyl)amino)-3-hydroxy-2-methylpropanoic acid and(S)-2-((4-((3′-((S)-2-amino-2,3-dihydro-1H-inden-5-yl)-2,2′-dimethyl-[1,1′-biphenyl]-3-yl)methoxy)-5-chloro-2-((5-cyanopyridin-3-yl)methoxy)benzyl)amino)-3-hydroxy-2-methylpropanoic acid] | 158 nM | 0.218 nM | 81.1 nM
Cc1c(COc2cc(OCc3cncc(C#N)c3)c(CNC[C@@H](O)CC(=O)O)cc2Cl)cccc1-c1cccc(-c2cn(C3CCNCC3)nn2)c1C [Example 330, (S)-4-((5-chloro-2-((5-cyanopyridin-3-yl)methoxy)-4-((2,2′-dimethyl-3′-(1-(piperidin-4-yl)-1H-1,2,3-triazol-4-yl)-[1,1′-biphenyl]-3-yl)methoxy)benzyl)amino)-3-hydroxybutanoic acid] | 1640 nM | 0.188 nM | 209 nM
Cc1c(COc2cc(OCc3cncc(C#N)c3)c(CN[C@H]3CCCC[C@@H]3O)cc2Cl)cccc1-c1cccc(-c2cccc(OCCNCCO)c2)c1C [Example 367, 5-((4-chloro-2-((((1S,2S)-2-hydroxycyclohexyl)amino)methyl)-5-((3″-(2-((2-hydroxyethyl)amino)ethoxy)-2,2′-dimethyl-[1,1′:3′,1″-terphenyl]-3-yl)methoxy)phenoxy)methyl)nicotinonitrile] | 376 nM | 2.53 nM | 227 nM
Cc1c(COc2cc(OCc3cncc(C#N)c3)c(CNC(C)(CO)C(=O)O)cc2Cl)cccc1-c1cccc(-c2ccc(CN3CC4(CNC4)C3)cc2)c1C (stereo not drawn) [Example 451] | 472 nM | 0.104 nM | 105 nM
Cc1c(COc2cc(OCc3cncc(C#N)c3)c(CNC(C)(CO)C(=O)O)cc2Cl)cccc1-c1cccc(-c2ccc(CN3CCC4(CNC(=O)C4)C3)cc2)c1C (stereo not drawn) [Example 444] | 296 nM | 0.064 nM | 133 nM

Continued, values first:

EC50 (PD-1/PD-L1 interaction) | IC50 (PD-1/PD-L1) | AC50 (PD-L1) | SMILES
36 nM | 0.064 nM | 41.2 nM | COc1nc(-c2cccc(-c3cccc4c3CC[C@@H]4Oc3nc(OCc4cncc(C#N)c4)c(CN[C@@](C)(CO)C(=O)O)cc3Cl)c2Cl)ccc1CN1CC2(CCC(=O)N2)C1 [Example 684]
38 nM | 0.064 nM | 23.1 nM | COc1nc(O[C@H]2CCc3c(-c4cccc(-c5ccc(C6=N[C@H](C)CN6)c(OC)n5)c4Cl)cccc32)c(Br)cc1CN[C@@](C)(CO)C(=O)O [Example 782]
131 nM | 0.526 nM | 255 nM | COc1cc(-c2cccc(-c3cccc(-c4cc(F)c(CNC[C@@H]5CCC(=O)N5)c(OC)c4)c3Cl)c2Cl)cc(F)c1CNC[C@@H]1CCC(=O)N1 [Example 512]
30 nM | 0.064 nM | 30.7 nM | COc1nc(-c2cccc(-c3cccc4c3CC[C@@H]4Oc3nc(OC)c(CN[C@@](C)(CO)C(=O)O)cc3Cl)c2Cl)ccc1CN[C@@H]1CCC[C@@H]1O [Example 645]
110 nM | 0.064 nM | 32.7 nM | COc1nc(O[C@H]2CCc3c(-c4cccc(-c5ccc(CNC[C@@H]6CCC(=O)N6)cc5)c4Cl)cccc32)c(Cl)cc1CN1CCC[C@H](C(=O)O)C1 [Example 719]
194 nM | 2.36 nM | 67.2 nM | COc1nc(O[C@H]2CCc3c(-c4cccc(-c5cnc(CNC[C@@H]6CCC(=O)N6)c(OC)n5)c4Cl)cccc32)c(Cl)cc1CN[C@@H]1CCC[C@@H]1O [Example 642]
135 nM | 0.201 nM | 137 nM | Cc1c(COc2cc(OCc3cncc(C#N)c3)c(CN[C@@](C)(CO)C(=O)O)cc2Cl)cccc1-c1cccc(Nc2nccc3cc(CNCCO)cnc23)c1C [Example 557]
76 nM | 0.125 nM | 81.9 nM | COc1nc(-c2cccc(-c3cccc4c3CC[C@@H]4Oc3nc(OC)c(CN4CC5(CCC(=O)N5)C4)cc3Cl)c2Cl)ccc1CNC[C@@H]1CCC(=O)N1 [Example 726]
20 nM | 0.064 nM | 60.6 nM | COc1nc(O[C@H]2CCc3c(-c4cccc(-c5cnc(CN6CC(C)(O)C6)c(OC)n5)c4Cl)cccc32)c(Cl)cc1CN1CC[C@H](C(=O)O)C1 [Example 705]
179 nM | 0.064 nM | 45.8 nM | COc1cc(-c2cccc(-c3cccc4c3CC[C@@H]4Oc3ccc(CN[C@@](C)(CO)C(=O)O)c(OC)n3)c2Cl)ccc1C1=NCCN1 [Example 777]
50 nM | 0.064 nM | 14.4 nM | COc1cc(-c2cccc(-c3cccc4c3CC[C@@H]4Oc3nc(OC)c(CN[C@@](C)(CO)C(=O)O)cc3Br)c2Cl)ccc1C1=NCCN1 [Example 780]
≥ 50000 nM | 2.84 nM | ≥ 10000 nM | COc1nc(-c2cccc(-c3cccc(-c4ccc5ncc(CNCCO)n5c4)c3Cl)c2Cl)ccc1CNCCO [Example 620]
180 nM | 0.296 nM | 38.3 nM | Cc1c(COc2cc(OCc3cncc(C#N)c3)c(CN[C@@H]3CCC[C@@H]3O)cc2Cl)cccc1-c1cccc(-c2ccc3c(c2)CCC3N2CC3(CC(C(=O)O)C3)C2)c1C (stereo partly drawn) [Example 583]
197 nM | 0.082 nM | 36.9 nM | Cc1c(COc2cc(OCc3cncc(C#N)c3)c(CN[C@](C)(CO)C(=O)O)cc2Cl)cccc1-c1cccc(-c2ccc(OCCNCCO)cc2)c1C [Example 511]
≥ 50000 nM | 1.74 nM | 74.8 nM | CN1CCCC1c1ccc(-c2cccc(-c3cccc4c3CC[C@@H]4Oc3nc(OCc4cncc(C#N)c4)c(CNCCO)cc3Cl)c2Cl)cc1 (stereo partly drawn) [Example 670]
